Test system: HMSCs
Test: Calcium deposition (osteogenic differentiation) with purmorphamine
Type: cell-based, human
Settings: 2 μM purmorphamine added directly into differentiation media, hMSCs on polystyrene culture plate (PS)

c1ccc2c(Oc3nc(Nc4ccc(N5CCOCC5)cc4)c4ncn(C5CCCCC5)c4n3)cccc2c1 [purmorphamine]
calcium deposition: significant increase in calcium deposition

— US9095524B2, “Customized compositions and uses thereof” (Bond University Ltd., priority 2011, dated 2015)
